Test results taken from BindingDB's records for doi:10.1016/j.ejmech.2009.09.041 (Institute For Medical Research and Occupational Health, 2010).

Legend:
Cholinesterase = Cholinesterase (Homo sapiens, UniProt P06276); test: Inhibition of human plasma BChE by Ellman's method
Acetylcholinesterase = Acetylcholinesterase (Homo sapiens, UniProt P22303); test: Inhibition of human recombinant AChE by Ellman's method
Sequence of Acetylcholinesterase (P22303 whole entry): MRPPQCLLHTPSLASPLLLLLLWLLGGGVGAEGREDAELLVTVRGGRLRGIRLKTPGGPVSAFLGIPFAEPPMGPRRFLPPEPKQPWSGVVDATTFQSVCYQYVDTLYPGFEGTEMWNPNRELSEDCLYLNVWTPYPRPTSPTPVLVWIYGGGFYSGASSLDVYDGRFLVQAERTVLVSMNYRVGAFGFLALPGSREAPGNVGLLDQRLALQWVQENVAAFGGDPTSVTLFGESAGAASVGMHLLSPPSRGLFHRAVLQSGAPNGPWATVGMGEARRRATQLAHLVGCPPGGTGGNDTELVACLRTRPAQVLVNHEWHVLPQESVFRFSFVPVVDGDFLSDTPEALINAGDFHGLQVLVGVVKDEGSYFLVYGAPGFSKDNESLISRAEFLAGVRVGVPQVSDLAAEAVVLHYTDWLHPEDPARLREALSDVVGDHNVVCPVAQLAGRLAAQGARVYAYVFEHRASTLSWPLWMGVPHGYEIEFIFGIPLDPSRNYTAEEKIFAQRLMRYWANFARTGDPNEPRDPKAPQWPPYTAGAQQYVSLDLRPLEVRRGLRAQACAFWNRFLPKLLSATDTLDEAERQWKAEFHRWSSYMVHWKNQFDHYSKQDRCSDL

Sequence of Cholinesterase (P06276 whole entry): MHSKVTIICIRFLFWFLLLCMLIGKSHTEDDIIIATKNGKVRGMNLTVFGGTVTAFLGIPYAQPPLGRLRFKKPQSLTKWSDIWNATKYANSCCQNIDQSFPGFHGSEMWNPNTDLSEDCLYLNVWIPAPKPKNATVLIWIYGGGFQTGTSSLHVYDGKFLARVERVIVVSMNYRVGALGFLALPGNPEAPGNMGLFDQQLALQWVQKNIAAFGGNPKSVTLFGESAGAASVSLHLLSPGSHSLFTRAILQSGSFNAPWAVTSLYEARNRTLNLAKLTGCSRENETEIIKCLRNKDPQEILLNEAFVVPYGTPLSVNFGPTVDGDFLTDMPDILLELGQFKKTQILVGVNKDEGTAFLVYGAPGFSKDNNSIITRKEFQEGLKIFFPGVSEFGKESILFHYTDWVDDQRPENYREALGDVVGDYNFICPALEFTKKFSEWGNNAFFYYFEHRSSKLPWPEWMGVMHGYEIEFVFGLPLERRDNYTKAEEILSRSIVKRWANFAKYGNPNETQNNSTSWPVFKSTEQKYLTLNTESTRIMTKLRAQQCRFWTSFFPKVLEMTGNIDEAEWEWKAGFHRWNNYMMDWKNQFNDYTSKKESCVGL

O=c1c(O)c(-c2cc(O)c(O)c(O)c2)oc2cc(O)cc(O)c12
Ki (Cholinesterase): 71 µM | Ki (Acetylcholinesterase): 37.8 µM

O=c1c(O)c(-c2ccc(O)cc2)oc2cc(O)cc(O)c12
Ki (Cholinesterase): 43.1 µM | Ki (Acetylcholinesterase): 92.8 µM

O=c1c(O)c(-c2ccc(O)c(O)c2)oc2cc(O)cc(O)c12 [2-(3,4-dihydroxyphenyl)-3,5,7-trihydroxy-chromone;hydrate]
Ki (Cholinesterase): 68 µM | Ki (Acetylcholinesterase): 38.3 µM

O=c1c(O)c(-c2ccc(O)c(O)c2)oc2cc(O)ccc12 [2-(3,4-dihydroxyphenyl)-3,7-dihydroxy-chromen-4-one]
Ki (Cholinesterase): 90 µM | Ki (Acetylcholinesterase): 100 µM

O=c1cc(-c2ccc(O)c(O)c2)oc2cc(O)cc(O)c12 [2-(3,4-dihydroxyphenyl)-5,7-dihydroxy-4H-chromen-4-one]
Ki (Cholinesterase): 166 µM | Ki (Acetylcholinesterase): 65.8 µM

C[C@@H]1O[C@@H](OC[C@H]2O[C@@H](Oc3c(-c4ccc(O)c(O)c4)oc4cc(O)cc(O)c4c3=O)[C@H](O)[C@@H](O)[C@@H]2O)[C@H](O)[C@H](O)[C@H]1O [3-Rhamnoglucosylquercetin]
Ki (Cholinesterase): 501 µM | Ki (Acetylcholinesterase): > 300 µM

O=c1cc(-c2ccc(O)cc2)oc2cc(O)cc(O)c12 [Naringenin, 18]
Ki (Cholinesterase): 37.4 µM | Ki (Acetylcholinesterase): 122 µM

O=c1c(O)c(-c2ccccc2)oc2cc(O)cc(O)c12 [norizalpinin]
Ki (Cholinesterase): 6.9 µM | Ki (Acetylcholinesterase): 85.6 µM
